ChEMBL document CHEMBL1201862, “PubChem BioAssay data set” (2004)
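Test compounds were applied to cells in 96-well plates for 48 hours at 5 doses. At the GI50, growth is halved.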 Calls of active or inactive are those of the source. Cut-off read from the data, not from the text of the source: active = GI50 up to about 1.1 µM and inactive = higher.

Tests used:
Test in all cases: NCI tumour cell line growth inhibition, 48 h
[1] = tested on: HOP-62
[2] = tested on: K562
[3] = tested on: ACHN
[4] = tested on: Hs-578T
[5] = tested on: TK-10
[6] = tested on: MDA-N
[7] = tested on: A498
[8] = tested on: NCI-H522
[9] = tested on: NCI-H23
[10] = tested on: MDA-MB-231
[11] = tested on: MOLT-4
[12] = tested on: HCT-116
[13] = tested on: HT-29
[14] = tested on: SW-620
[15] = tested on: UACC-257
[16] = tested on: OVCAR-4
[17] = tested on: KM12
[18] = tested on: NCI-H226
[19] = tested on: M14
[20] = tested on: UACC-62
[21] = tested on: CAKI-1
[22] = tested on: SK-OV-3
[23] = tested on: MCF7
[24] = tested on: CCRF-CEM
[25] = tested on: SK-MEL-5
[26] = tested on: SF-295
[27] = tested on: SR
[28] = tested on: SF-268
[29] = tested on: SF-539
[30] = tested on: SN12C
[31] = tested on: Malme-3M
[32] = tested on: UO-31
[33] = tested on: HCT-15
[34] = tested on: NCI/ADR-RES
[35] = tested on: SK-MEL-2
[36] = tested on: EKVX
[37] = tested on: NCI-H460
[38] = tested on: HL-60
[39] = tested on: PC-3
[40] = tested on: IGROV-1
[41] = tested on: RXF 393
[42] = tested on: U-251
[43] = tested on: MDA-MB-435
[44] = tested on: OVCAR-3
[45] = tested on: DU-145
[46] = tested on: OVCAR-8
[47] = tested on: HOP-92
[48] = tested on: LOX IMVI
[49] = tested on: A549
[50] = tested on: HCC 2998
[51] = tested on: RPMI-8226
[52] = tested on: COLO 205
[53] = tested on: SK-MEL-28
[54] = tested on: 786-0
[55] = tested on: BT-549
[56] = tested on: SNB-75
[57] = tested on: T47D
[58] = tested on: SNB-19
[59] = tested on: OVCAR-5

O=[N+]([O-])c1ccc(C2=NOC(c3ccc(Cl)cc3)N2C23CC4CC(CC(C4)C2)C3)cc1 (stereo not given)
GI50 [1]: > 100 µM (inactive)
GI50 [2]: > 100 µM (inactive)
GI50 [3]: 9.71 µM (inactive)
GI50 [4]: 34.9 µM (inactive)
GI50 [5]: > 100 µM (inactive)
GI50 [6]: > 100 µM (inactive)
GI50 [7]: > 100 µM (inactive)
GI50 [8]: > 100 µM (inactive)
GI50 [9]: > 100 µM (inactive)
GI50 [10]: > 100 µM (inactive)
GI50 [11]: 33.3 µM (inactive)
GI50 [12]: 28.1 µM (inactive)
GI50 [13]: > 100 µM (inactive)
GI50 [14]: > 100 µM (inactive)
GI50 [15]: > 100 µM (inactive)
GI50 [16]: > 100 µM (inactive)
GI50 [17]: > 100 µM (inactive)
GI50 [18]: 64.9 µM (inactive)
GI50 [19]: > 100 µM (inactive)
GI50 [20]: > 100 µM (inactive)
GI50 [21]: 16.6 µM (inactive)
GI50 [22]: > 100 µM (inactive)
GI50 [23]: 40.6 µM (inactive)
GI50 [24]: > 100 µM (inactive)
GI50 [25]: 53 µM (inactive)
GI50 [26]: > 100 µM (inactive)
GI50 [27]: 67.9 µM (inactive)
GI50 [28]: > 100 µM (inactive)
GI50 [29]: > 100 µM (inactive)
GI50 [30]: > 100 µM (inactive)
GI50 [31]: > 100 µM (inactive)
GI50 [32]: > 100 µM (inactive)
GI50 [33]: 97.1 µM
GI50 [34]: > 100 µM (inactive)
GI50 [35]: 20.2 µM (inactive)
GI50 [36]: > 100 µM (inactive)
GI50 [37]: > 100 µM (inactive)
GI50 [38]: 6.46 µM (inactive)
GI50 [39]: > 100 µM (inactive)
GI50 [40]: > 100 µM (inactive)
GI50 [41]: 1.86 µM (inactive)
GI50 [42]: > 100 µM (inactive)
GI50 [43]: > 100 µM (inactive)
GI50 [44]: > 100 µM (inactive)
GI50 [45]: > 100 µM (inactive)
GI50 [46]: > 100 µM (inactive)
GI50 [47]: 25.5 µM (inactive)
GI50 [48]: > 100 µM (inactive)
GI50 [49]: 56.9 µM (inactive)
GI50 [50]: 64.1 µM (inactive)
GI50 [51]: 15.5 µM (inactive)
GI50 [52]: > 100 µM (inactive)
GI50 [53]: > 100 µM (inactive)
GI50 [54]: > 100 µM (inactive)
GI50 [55]: > 100 µM (inactive)
GI50 [56]: > 100 µM (inactive)
GI50 [57]: 35.2 µM (inactive)
GI50 [58]: > 100 µM (inactive)

CCCCSc1n/c(=C\c2ccc(N(C)C)cc2)c2nnnn12
GI50 [1]: > 100 µM (inactive)
GI50 [2]: > 100 µM (inactive)
GI50 [3]: > 100 µM (inactive)
GI50 [59]: > 100 µM (inactive)
GI50 [4]: > 100 µM (inactive)
GI50 [5]: > 100 µM (inactive)
GI50 [6]: > 100 µM (inactive)
GI50 [7]: > 100 µM (inactive)
GI50 [8]: > 100 µM (inactive)
GI50 [9]: > 100 µM (inactive)
GI50 [10]: > 100 µM (inactive)
GI50 [11]: > 100 µM (inactive)
GI50 [12]: > 100 µM (inactive)
GI50 [13]: > 100 µM (inactive)
GI50 [14]: > 100 µM (inactive)
GI50 [15]: > 100 µM (inactive)
GI50 [16]: > 100 µM (inactive)
GI50 [17]: > 100 µM (inactive)
GI50 [18]: > 100 µM (inactive)
GI50 [19]: > 100 µM (inactive)
GI50 [20]: > 100 µM (inactive)
GI50 [21]: > 100 µM (inactive)
GI50 [22]: > 100 µM (inactive)
GI50 [23]: > 100 µM (inactive)
GI50 [26]: > 100 µM (inactive)
GI50 [27]: > 100 µM (inactive)
GI50 [28]: > 100 µM (inactive)
GI50 [29]: > 100 µM (inactive)
GI50 [30]: > 100 µM (inactive)
GI50 [31]: > 100 µM (inactive)
GI50 [32]: 73.8 µM (inactive)
GI50 [33]: > 100 µM
GI50 [34]: > 100 µM (inactive)
GI50 [35]: > 100 µM (inactive)
GI50 [36]: > 100 µM (inactive)
GI50 [37]: > 100 µM (inactive)
GI50 [38]: > 100 µM (inactive)
GI50 [39]: > 100 µM (inactive)
GI50 [40]: > 100 µM (inactive)
GI50 [41]: > 100 µM (inactive)
GI50 [42]: > 100 µM (inactive)
GI50 [43]: > 100 µM (inactive)
GI50 [44]: > 100 µM (inactive)
GI50 [45]: > 100 µM (inactive)
GI50 [46]: > 100 µM (inactive)
GI50 [47]: > 100 µM (inactive)
GI50 [48]: > 100 µM (inactive)
GI50 [49]: > 100 µM (inactive)
GI50 [50]: > 100 µM (inactive)
GI50 [51]: > 100 µM (inactive)
GI50 [52]: > 100 µM (inactive)
GI50 [53]: > 100 µM (inactive)
GI50 [54]: > 100 µM (inactive)
GI50 [55]: > 100 µM (inactive)
GI50 [56]: > 100 µM (inactive)
GI50 [57]: > 100 µM (inactive)
GI50 [58]: > 100 µM (inactive)
